This note sets out measurements from paper PMC8667898, “Topo II inhibition and DNA intercalation by new phthalazine-based derivatives as potent anticancer agents: design, synthesis, anti-proliferative, docking, and in vivo studies” (Journal of Enzyme Inhibition and Medicinal Chemistry, 2021).

Series [1] can be described thus: Hematological and biochemical blood assays in SEC-bearing mice. The format is in vivo, Swiss albino mice. The note with it: 5 mg/kg BW, Mean ± SEM (n = 7). Here is the method: At the end of the experiment, animals from different groups were sacrificed, and blood samples were collected for hematological parameters, including Hb, RBC’s, and WBC’s levels, and serum for determination of liver enzymes ALT, AST levels, and proteins.
(§1) The experimental animals were randomly divided into four groups. Group 1 served as the normal saline control (5 ml/kg B.Wt., I.P.). Group 2 served as the SEC control (1 × 10^6 cells/mouse). Group 3 served as the compound-treated group (5 mg/kg B.Wt., I.P.). […] Bodyweight and survival were recorded daily until the 24th day in both treated and control groups. At the end of the experiment, the blood of each group was collected under light anaesthesia to the estimate of hematological and biochemical assays. The anaesthetised animals were then sacrificed for evaluation of the antitumor activity and histopathological examination.
At the end of the experiment, animals from different groups were sacrificed, and blood samples were collected for hematological parameters including, Hb, RBC’s, and WBC’s levels, and serum for determination of liver enzymes ALT, AST levels, and proteins. Complete blood count (CBC) was investigated using the Abbott CELL-DYN®1800 automated haematology analyser (USA) using ready-made kits (Abbott Laboratories, Abbott Park, IL, USA). Activities of aspartate aminotransferase (AST) and alanine aminotransferase (ALT) were evaluated using commercial kits (ELITech clinical systems, France). Serum albumin level was determined by kit purchased from STANBIO Company (USA). Protein content was determined by colorimetric method using ready-made kits produced by Instrumentation Laboratory SpA, Inova diagnostics, Milano, Italy.

The next series relates to Calf thymus DNA. As to the kind of experiment: DNA intercalation assay (DNA/methyl green colorimetric assay). The format is binding. The following applies: three independent experiments. The protocol:
(§2) The data represented the mean of three independent experiments in triplicate and were expressed as means ± SD. […]
4.2.2. DNA intercalation assay (DNA/methyl green colorimetric assay)
Affinity of some compounds for DNA-binding was examined in vitro using DNA/methyl green assay using doxorubicin as a positive control. In this test, a mixture of methyl green (20 mg) and Calf thymus DNA (10 mg) (Sigma– Aldrich) were suspended in 0.05 M TrisHCl buffer (100 mL, pH 7.5) containing 7.5 mM MgSO4. This mixture was stirred continuously for 24 h at 37 °C. Then, ethanolic solution of the test compounds was pitted into the wells of a 96-well microtiter tray at a concentration of 10, 100 and 1000 µM. The excess solvent was removed from each well under vacuum, with subsequent addition of 200 µL of the DNA/methyl green solution. The test samples were incubated for 24 h in dark at ambient temperature. After that, absorbance of each sample was determined at 642.5–645 nm. In this test, the methyl green dye reversibly binds to DNA to form persistent colored complex of DNA/methyl green. This color still stables at neutral pH. When the DNA intercalators were added, the methyl green was displaced from DNA with addition of H2O molecule to the dye resulting in formation of the colorless carbinol leading to a decrease in spectrophotometric absorbance. ΔA value (the difference between DNA/methyl green complex and free cabinol) provides the simplest means for detecting the DNA-binding affinity and relative binding strength. IC50′s were determined by linear regression of data plotted on a semi -log scale and the data were compared with doxorubicin as standard DNA intercalator . […]

For series [2], the system named is HCT-116 cells (colorectal carcinoma). Put plainly: MTT anti-proliferative assay, HCT-116. The following applies: Homo sapiens, HCT-116, MTT, mean ± SD of three separate experiments; read-out: In vitro Cytotoxicity IC50 HCT-116. Type of series: cell-based, human. Here is the method: Anti-proliferative activities of the target compounds were assessed via the standard MTT method[38–40] against three cancer cell lines, namely, hepatocellular carcinoma (HepG-2), colorectal carcinoma (HCT-116), and human breast adenocarcinoma (MCF-7). Doxorubicin was used in this test as a positive control.
Anti-proliferative activity of the synthesised compounds was estimated using the MTT assay protocol[8]^,[38–40] as shown in Supplementary data.
4.2.1. In vitro anti-proliferative activity against MCF-7, HepG-2 and HCT-116 The cells were cultured in RPMI-1640 medium supplemented with 10% fetal bovine serum (FBS), penicillin (100 unit /mL) and streptomycin sulphate (100µg/mL) at 37 °C in a 5% CO2 incubator.
Then, cells were dropped in 96-well plates at a density of 3-8 × 10^3 cells/well and incubated for two days in a 5% CO2 incubator at 37 °C. Then, the cells were treated with the synthesized compounds and the cell cultures were continued incubated for 24 h. However, Different concentrations of the compound under test (0.0, 5.0, 12.5, 25.0 and 50 mg/ml) were added to the cell monolayer. Then, (3-[4,5-dimethylthiazol-2-yl]- 2,5-diphenyltetrazolium bromide) MTT solution (20 µl, 5mg/mL) was added to each well and incubated for additional 4 h. The formed purple crystals of MTT-formazan were dissolved in 100 µl DMSO each well; the absorbance of each well was measured at 570 nm using a plate reader (EXL 800, USA). All of the compounds were tested three times. The relative cell viability in percentage was calculated. The results for IC50 values of the active compounds are […]
as §2
of the cells could survive. […]
A general note: Tetrazolium dyes change colour on reduction, which living cells bring about.

Series [3] relates to Solid Ehrlich Carcinoma (SEC). As to the kind of experiment: In vivo antitumor activity against Solid Ehrlich Carcinoma. More on the design: species or system Swiss albino mice. The following applies: SEC-bearing mice, 5 mg/kg BW I.P. The protocol: To examine the in vivo anticancer activity of compound 9d, adult female Swiss albino mice (30 mice) inoculated with I.P. injection of Solid Ehrlich Carcinoma (SEC) tumour cell lines in a volume of 0.2 ml physiological saline contains 1 × 10^6 viable cells for 24 h.
These mice were randomly divided into four groups (7 mice/group). […] Bodyweight and survival were recorded daily until the 24th day in both treated and control groups. At the end of the experiment, the blood of each group was collected under light anaesthesia for the estimation of hematological and biochemical assays. The anaesthetised animals were then sacrificed to evaluate of the antitumor activity and to conduct hematological, biochemical, and histopathological assays, Figure 3.
Adult female Swiss albino mice purchased from Theodor Bilharzia Research Institute, Giza, Egypt, with an average bodyweight of (18–23) g were used. Mice were housed under constant conditions of 12 h light/dark cycle in a […], with free access to standard laboratory mice food and water. All procedures related to care and maintenance of the animals were performed according to the international guiding principles for animal research and approved by the Faculty of Science, Suez Canal University bioethics and animal ethics committee (Approval number REC-07–2021).
Solid Ehrlich carcinoma (SEC) was purchased from the National Cancer Institute (Cairo University, Egypt). The tumour cell line was proliferated in mice through serial intraperitoneal (I.P.) transplantation of a volume of 0.2 ml physiological saline contains 1 × 10^6 viable cells for 24 h. SEC cells were collected 7 days after I.P. implantation. The harvested cells were diluted with saline to obtain a concentration of 5 × 10^6 viable SEC cells/mL. A volume of 0.2 ml saline contains 1 × 10^6 SEC cells that were I.P. implanted into each normal mouse. SEC cells (1 × 10^6 tumour cells/mouse) were implanted subcutaneously into the right thigh of the hind limb.
as §1
It includes tumour volume, weight, and tumour inhibition ratio (TIR%). Time interval measurements of tumour volume using digital Vernier calliper (Tricle Brand, Shanghai, China). Measure tumour length and width using a clipper and then calculate tumour volume using formulations V = (L × W × W)/2, where V is tumour volume, W is tumour width, L is tumour length. While TIR% was calculated according to the following equation Tumor volume (Control)−Tumor volume (treated)/Tumor volume (control)× 100.

The nature of series [4]: Histopathological examination of liver tissues of SEC-bearing mice. Type of series: in vivo, Swiss albino mice. The following applies: H&E stain, ×200. Here is the method: as §1
Specimens of liver-sacrificed mice were fixed in 10% saline formalin. The fixed liver specimens were dehydrated in ascending series of ethyl alcohol and embedded in paraffin. Sections at […] thicknesses were stained with haematoxylin and eosin and examined under the light microscope.

Regarding `COc1cccc2c1C(=O)c1c(O)c3c(c(O)c1C2=O)C[C@@](O)(C(=O)CO)C[C@@H]3O[C@H]1C[C@H](N)[C@H](O)[C@H](C)O1` [Doxorubicin, reference compound], in series [1], the Hb was determined as 7.82 ± 0.27 g/dL, the RBCs count was 5.26 ± 0.38 ×10^6/µL, the “Total Protein” value amounted to 6.73 ± 0.26 g/dL and the WBCs count is 4.11 ± 0.57 ×10^3/µL. Further, in the series on Calf thymus DNA, the IC50 is 31.3 ± 1.8 µM. Also, the concentration for half-maximal inhibition (IC50) in series [2] turned out to be 9.62 ± 0.5 µM. The tumour volume in series [3] turned out to be 22 mm^3. The “reduction of the increase in solid tumour mass” value in series [3] (compared to SEC control) is 59.8%. This compound gave a solid tumour mass in series [3] (SEC control 194 mg) of 78 mg. The “Histopathological finding in liver tissue” value in series [4] is “tissue enhancement like normal group, but still, some hydropic degeneration, pyknosis (arrows) and karyolysis (arrowhead) were shown”.

What is called IC50 is the concentration that inhibits the measured activity by half.
